pIC50: −log10 of the molar value.

In general, pIC50 refers to −log10 of the IC50, conventionally taken in molar units. Read a low pIC50 as a high IC50.

The nature of assay [1]: Inhibitory activity against Opioid receptor kappa1 binding to bovine striatal membrane.
The nature of assay [2]: Inhibitory activity against Opioid receptor delta 1 binding to bovine striatal membrane.

`C[C@@]12Oc3c(O)ccc4c3[C@@]13CCN(CC1CC1)[C@H](C4)[C@]3(NC(=O)CSSCC(=O)N[C@@]13CCC(=O)[C@]4(C)Oc5c(O)ccc6c5[C@@]41CCN(CC1CC1)[C@@H]3C6)CCC2=O`: the figures for the pIC50 in assay [1] and in assay [2] were 8.11 and 8.28, respectively.

Consider `CN1CC[C@]23c4c5ccc(O)c4O[C@@]2(C)C(=O)CC[C@@]3(NC(=O)CSSCC(=O)N[C@@]23CCC(=O)[C@]4(C)Oc6c(O)ccc7c6[C@@]42CCN(C)C3C7)C1C5` [MET-TAMO and N-CPM-MET-TAMO analogue], for which the results for the pIC50 in assay [1] and in assay [2] were 7.05 and 7.28, respectively.

These data come from BindingDB's records for doi:10.1016/0960-894X(95)00287-4 (1995).
